The melting point is the temperature of the solid-liquid transition.

Marks after values point to notes of the source that are not given here.

The values that follow come from patent US20200345010A1, “FUNGICIDAL OXADIAZOLES” (FMC Corporation, priority 2019, published 2020).

One series deals with Phakopsora pachyrhizi. Put plainly: Test A: Asian soybean rust control on soybean seedlings. It counts as in vivo. Conditions: soybean seedlings sprayed the day before inoculation, 100 = 100% disease control, 0 = none. An excerpt:
(§1) General protocol for preparing test suspensions for Tests A-C: the test compounds were first dissolved in acetone in an amount equal to 3% of the final volume and then suspended at the desired concentration (in ppm) in acetone and purified water (50/50 mix by volume) containing 250 ppm of the surfactant PEG400 (polyhydric alcohol esters). The resulting test suspensions were then used in Tests A-C.
The test solution was sprayed to the point of run-off on soybean seedlings. The following day the seedlings were inoculated with a spore suspension of Phakopsora pachyrhizi (the causal agent of Asian soybean rust) and incubated in a saturated atmosphere at 22° C. for 24 h, and then moved to a growth chamber at 22° C. for 8 days, after which time visual disease ratings were made.
(§2) A rating of 100 indicates 100% disease control and a rating of 0 indicates no disease control (relative to the controls). A dash (-) indicates the compound was not tested.

The test system of the next series is Zymoseptoria tritici. Kind of series: Test B: wheat leaf blotch control on wheat seedlings. Format: in vivo. The settings on record: 250 ppm test suspension (asterisk); wheat seedlings sprayed the day before inoculation; 100 = 100% disease control, 0 = none.
Text: as §1
The test solution was sprayed to the point of run-off on wheat seedlings. The following day the seedlings were inoculated with a spore suspension of Zymoseptoria tritici (the causal agent of wheat leaf blotch) and incubated in a saturated atmosphere at 24° C. for 48 h, and then moved to a growth chamber at 20° C. for 17 days, after which time disease ratings were made.
as §2

For series [1], the system named is Puccinia recondita f. sp. tritici. Kind of series: Test C: wheat leaf rust control on wheat seedlings. It counts as in vivo. Conditions: wheat seedlings sprayed the day before inoculation, 100 = 100% disease control, 0 = none.
Text: as §1
The test solution was sprayed to the point of run-off on wheat seedlings. The following day the seedlings were inoculated with a spore suspension of Puccinia recondita f. sp. tritici (the causal agent of wheat leaf rust) and incubated in a saturated atmosphere at 20° C. for 24 h, and then moved to a growth chamber at 20° C. for 7 days, after which time disease ratings were made.
as §2

Where [2] appears, read: 250 ppm test suspension (asterisk).

Take `Cl.O=S1(=NCc2ccc(-c3noc(C(F)(F)F)n3)cc2)CCNCC1` [Compound 24]: the melting point was in the range of 219 to 223 °C. The “Test A disease control rating” value in the series on Phakopsora pachyrhizi (10 ppm test suspension) is on record as 99%. In the series on Zymoseptoria tritici, the “Test B disease control rating” value is recorded as 18* %. Further, the “Test C disease control rating” value in series [1] (setting [2]) was 99* %.

In the case of `CS(=O)(=NCc1ccc(-c2noc(C(F)(F)F)n2)cc1)c1cccs1` (stereo not shown) [Compound 27], the “Test A disease control rating” value in the series with Phakopsora pachyrhizi (10 ppm test suspension) was determined as 100%. Besides, the “Test B disease control rating” value in the series on Zymoseptoria tritici was 98* %. Besides, the “Test C disease control rating” value in series [1] (setting [2]) is 100* %.

`CS(=O)(=NCc1ccc(-c2noc(C(F)(F)F)n2)cc1)c1ccsc1` (stereo not shown) [Compound 28]: the “Test A disease control rating” value with Phakopsora pachyrhizi (10 ppm test suspension) came to 100%. Also, the “Test B disease control rating” value in the series on Zymoseptoria tritici is 79* %. Besides, the “Test C disease control rating” value in series [1] (setting [2]) was 100* %.

`CS(=O)(=NCc1ccc(-c2noc(C(F)(F)F)n2)cc1)c1ccc2ccccc2c1` (stereo not shown) [Compound 29]: the “Test A disease control rating” value in the series with Phakopsora pachyrhizi (10 ppm test suspension) worked out at 97%. The “Test B disease control rating” value in the series on Zymoseptoria tritici is 3* %. Further, the “Test C disease control rating” value in series [1] (setting [2]) was 99* %.

For `CCCS(=O)(=NCc1ccc(-c2noc(C(F)(F)F)n2)cc1)c1c(F)c(F)c(F)c(F)c1F` (stereo not shown) [Compound 37], the “Test A disease control rating” value with Phakopsora pachyrhizi (50 ppm test suspension) worked out at 100%. Besides, the “Test B disease control rating” value in the series with Zymoseptoria tritici was 15* %. Also, the “Test C disease control rating” value in series [1] (50 ppm test suspension) is 89%.

As to `O=S1(=Nc2ccc(-c3noc(C(F)(F)F)n3)cc2)c2ccccc2-c2ccccc21` [Compound 38], the melting point fell in the range of 230 to 234 °C. Besides, in the series on Phakopsora pachyrhizi (10 ppm test suspension), the “Test A disease control rating” value is 0%. The “Test B disease control rating” value in the series with Zymoseptoria tritici is 1* %. Besides, in series [1] (10 ppm test suspension), the “Test C disease control rating” value came to 0%.

Consider `CS(=O)(=Nc1ccc(-c2noc(C(F)(F)F)n2)cc1)c1ccccc1` (stereo not shown) [Compound 39], for which the “Test A disease control rating” value with Phakopsora pachyrhizi (10 ppm test suspension) is given as 99%. Besides, the “Test B disease control rating” value with Zymoseptoria tritici is 65* %. For the same molecule, in series [1] (10 ppm test suspension), the “Test C disease control rating” value stood at 100%.

On to `Cc1cc(C)c(S(C)(=O)=NCc2ccc(-c3noc(C(F)(F)F)n3)cc2)c(C)c1` (stereo not shown) [Compound 40], for which, in the series with Phakopsora pachyrhizi (10 ppm test suspension), the “Test A disease control rating” value was 91%. The “Test B disease control rating” value with Zymoseptoria tritici is recorded as 36* %. The “Test C disease control rating” value in series [1] (10 ppm test suspension) was found to be 0%.

`O=S1(=NCc2ccc(-c3noc(C(F)(F)F)n3)cc2)c2ccccc2-c2ccccc21` [Compound 41] came in with a melting point of 120 to 124 °C. Moreover, the “Test A disease control rating” value with Phakopsora pachyrhizi (10 ppm test suspension) stood at 97%. For the same molecule, the “Test B disease control rating” value in the series on Zymoseptoria tritici is given as 86* %. In addition, the “Test C disease control rating” value in series [1] (10 ppm test suspension) is reported as 86%.

Regarding `CS(=O)(=NCc1ccc(-c2noc(C(F)(F)F)n2)cc1)c1ccccc1C#N` (stereo not shown) [Compound 44], the “Test A disease control rating” value in the series with Phakopsora pachyrhizi (10 ppm test suspension) is listed as 98%. In the series with Zymoseptoria tritici, the “Test B disease control rating” value is listed as 0* %. The “Test C disease control rating” value in series [1] (10 ppm test suspension) amounted to 100%.

As for `CS(=O)(=NCc1ccc(-c2noc(C(F)(F)F)n2)cc1)c1cccc(C#N)c1` (stereo not shown) [Compound 45], the “Test A disease control rating” value in the series with Phakopsora pachyrhizi (10 ppm test suspension) is given as 100%. Also, the “Test B disease control rating” value in the series with Zymoseptoria tritici was 0* %. Also, the “Test C disease control rating” value in series [1] (10 ppm test suspension) was 100%.

Regarding `CCCS(C)(=O)=NCc1ccc(-c2noc(C(F)(F)F)n2)cc1` (stereo not shown) [Compound 46], in the series with Phakopsora pachyrhizi (10 ppm test suspension), the “Test A disease control rating” value was found to be 100%. Further, the “Test B disease control rating” value in the series on Zymoseptoria tritici is given as 1* %. For the same molecule, the “Test C disease control rating” value in series [1] (10 ppm test suspension) is 100%.

Consider `O=S1(=NCc2ccc(-c3noc(C(F)(F)F)n3)cc2)CCCC1` [Compound 51], for which the melting point was in the range of 58 to 63 °C. The “Test A disease control rating” value in the series with Phakopsora pachyrhizi (10 ppm test suspension) is 100%. For the same molecule, the “Test B disease control rating” value in the series on Zymoseptoria tritici is recorded as 52* %. Moreover, the “Test C disease control rating” value in series [1] (50 ppm test suspension) is on record as 100** %.

As for `CC(N=S(C)(C)=O)c1ccc(-c2noc(C(F)(F)F)n2)cc1` (stereo not shown) [Compound 52], in the series on Phakopsora pachyrhizi (10 ppm test suspension), the “Test A disease control rating” value worked out at 79%. The “Test B disease control rating” value in the series with Zymoseptoria tritici is listed as 25* %. The “Test C disease control rating” value in series [1] (50 ppm test suspension) is given as 98** %.
